Measured values reported in publication PMC10300102, “In vivo inhibition of nuclear ACE2 translocation protects against SARS-CoV-2 replication and lung damage through epigenetic imprinting” (Nature Communications, 2023).
Values joined by “and” are separate entries in the source; they are usually repeats but may differ in a detail not shown here. Equal entries are not always repeated. Where a SMILES comes first, the peptide text is derived from it. The star is where a group is joined. Myristoyl = CCCCCCCCCCCCCC(=O)*

What was measured:
[1] = test system: SARS-CoV-2 (QLD02) in Caco2 cells; details: cited from earlier work
[2] = In vitro monkey plasma assay; format: in vitro ADME, cynomolgus monkey; details: for Concentration: single replicates
Procedure: Briefly, pooled frozen plasma was thawed at 37 °C prior to experiments. Plasma was centrifuged at 3720 x g for 5 min and any clots were removed. All blanks and working solutions were aliquoted on an Apricot automation workstation (2 μL/well of working solution (100 μM) with 98 μL plasma for NACE2i peptide (CP300638) and control compounds somatostatin acetate and procaine hydrochloride). All reaction plates containing mixtures of NACE2i, somatostatin acetate, and procaine hydrochloride and plasma were incubated at 37 °C in a water bath for 0, 15, 30, 60, 120, 240, and 360 min. Incubation was stopped with 4% H3PO4 and stop solution (200 ng/mL tolbutamide and 200 ng/mL labetalol in MeOH) to precipitate protein. Each plate was sealed and shaken for 20 min and then centrifuged at 3720 x g at 4 °C for 20 min. After centrifugation, the Apricot workstation was used to transfer 150 μL supernatant to each bioanalysis plate, which was then sealed and shaken for 10 min prior to LC-MS/MS analysis as per the manufacturer’s guidelines. LC: Shimadzu LC 30-AD, MS: QTRAP 6500 + , Autosampler: CTC PAL.

[3] = test system: SARS-CoV-2 spike protein; parameters: species or system golden Syrian hamsters; details: hamster, in vivo
[4] = test system: importin-α ΔIBB protein / ACE2 FITC peptide (ACE2-IMPα complex); assay: Fluorescence polarization competition assay; format: binding; details: Fig. 1b, c: EMSA, microscale thermophoresis and fluorescence polarization
Procedure: Fluorescence polarization assays were performed using the CLARIOstar Plus plate reader (BMG Labtech, Ortenberg, Germany) with the fluorescein-Ahx-tagged ACE2 peptide sequence ^766[…]^779 manufactured by GeneScript Biotech (Piscataway, NJ), NACE2i peptide sequence MYR-[…]-OH manufactured by Mimitopes Pty Ltd (Melbourne, Australia), and recombinantly expressed importin-α ΔIBB protein. Each assay contained 50 nM ACE2 FITC, 10 μM importin-α ΔIBB protein, and two-fold serially-diluted NACE2i (starting concentration 400 μM) across 10 wells in a total volume of 200 μL. Fluorescence polarization readings were taken using 96-well black Fluotrac microplates (Greiner Bio-One, Kremsmünster, Austria). Assays were repeated in triplicate and contained a negative control (no inhibitor) and blank (no importin-α ΔIBB protein). Triplicate data were normalized and fitted to a single inhibition curve using GraphPad Prism (GraphPad Software, La Jolla, CA).

[5] = test system: ACE2, ACE2me, SARS-CoV-2 spike protein; parameters: species or system golden Syrian hamsters; details: hamster, in vivo
[6] = test system: H3K27ac; parameters: species or system golden Syrian hamsters; details: hamster, in vivo
[7] = parameters: species or system golden Syrian hamsters; details: hamster, in vivo
[8] = test system: CD14+ monocytes; format: cell-based, human

## CCCCCCCCCCCCCC(=O)N[C@H](C(=O)NCC(=O)N[C@H](C(=O)N[C@@H](CCCNC(=N)N)C(=O)N[C@@H](CC(=O)O)C(=O)N[C@@H](CCCNC(=N)N)C(=O)N[C@@H](CCCCN)C(=O)N[C@@H](CCCCN)C(=O)N[C@@H](CCCCN)C(=O)N[C@@H](CC(N)=O)C(=O)N[C@@H](CCCCN)C(=O)N[C@@H](C)C(=O)N[C@@H](CCCNC(=N)N)C(=O)N[C@@H](CO)C(=O)O)[C@@H](C)CC)[C@@H](C)O [NACE2i] (Myristoyl-TGIRDRKKKNKARS-OH)
[1]
  SARS-CoV-2 replication in Caco2 cells: significantly inhibit
[2]; cynomolgus monkey plasma, time 0 min
  Concentration: 2270 nM and 2330 nM
[2]; cynomolgus monkey plasma, time 15 min
  Concentration: 1960 nM and 1620 nM
[2]; cynomolgus monkey plasma, time 30 min
  Concentration: 2060 nM and 2030 nM
[2]; cynomolgus monkey plasma, time 60 min
  Concentration: 1840 nM and 1540 nM
[2]; cynomolgus monkey plasma, time 120 min
  Concentration: 1740 nM and 1890 nM
[2]; cynomolgus monkey plasma, time 240 min
  Concentration: 1980 nM and 1920 nM
[2]; cynomolgus monkey plasma, time 360 min, n=2
  % Remaining: 76.7741%
[2]; cynomolgus monkey plasma, time 360 min
  Concentration: 1740 nM and 1850 nM
[2]; monkey, plasma (pooled, frozen), cynomolgus monkey plasma, time 15 min, n=2
  remaining at 0.25 h, 2 µM: 86.2%
[2]; monkey, plasma (pooled, frozen), cynomolgus monkey plasma, time 30 min, n=2
  remaining at 0.5 h, 2 µM: 90.6%
[2]; monkey, plasma (pooled, frozen), cynomolgus monkey plasma, time 60 min, n=2
  remaining at 1 h, 2 µM: 81.1%
[2]; monkey, plasma (pooled, frozen), cynomolgus monkey plasma, time 120 min, n=2
  remaining at 2 h, 2 µM: 76.6%
[2]; monkey, plasma (pooled, frozen), cynomolgus monkey plasma, time 240 min, n=2
  remaining at 4 h, 2 µM: 87.4%
[2]; pooled male cynomolgus monkey plasma, 2 µL of 100 µM working solution + 98 µL plasma, 37 °C, 0-360 min, LC-MS/MS, read-out: T1/2 in plasma
  half-life at 2 µM: 14.5 h
[2]; pooled male cynomolgus monkey plasma, 2 µL of 100 µM working solution + 98 µL plasma, 37 °C, 360 min, LC-MS/MS
  % remaining in plasma after 360 min incubation: 78%
[3]
  SARS-CoV-2 spike protein signal intensity: significantly reduced
  population of SARS-CoV-2 spike protein-positive cells in bronchiolar epithelium: significantly reduced
[4]
  inhibition of the ACE2-IMPα complex in vitro: directly inhibiting the ACE2-IMPα complex
[5]
  ACE2me in the bronchioles: significantly upregulated
  Fn/c of ACE2: significantly reduced
  SARS-CoV-2 spike protein expression in bronchioles: significantly reduced or eliminated
  global ACE2 and proportion of ACE2+ cells: no significant change
  nuclear ACE2 expression in bronchiolar epithelial cells: significantly reduced
  proportion of cells co-expressing ACE2 and ACE2me: increased
[6]
  H3K27ac along with ACE2me in lung tissues: significant H3K27ac induction
[7]
  decrease in mean body weights: lower than vehicle controls
[8]
  ACE2me expression in CD14+ monocytes: induced
  CD14+ACE2 NFI: 581.219 and 687.373 and 742.928 and 1006.4 and 850.738 and 975.203 and 677.429 and 828.535
  IL-6 expression in CD14+ monocytes: significantly decreased
  nuclear ACE2 expression in CD14+ monocytes: significantly decreased
  nuclear ACE2 expression in infected CD14+ monocytes: reduced
